Reference: ChEMBL document CHEMBL1144313, “Synthesis of ring-substituted 4-aminoquinolines and evaluation of their antimalarial activities” (Bioorg Med Chem Lett, 2005)

Key:
Assay type in all cases: functional, organism-based
Plasmodium falciparum [1] = test: Effective concentration for Plasmodium falciparum W2
Plasmodium falciparum [2] = test: Effective concentration for Plasmodium falciparum 3D7
Plasmodium falciparum [3] = test: Effective concentration against Plasmodium falciparum W2

Row | EC50 (Plasmodium falciparum [1]) [µM] | EC50 (Plasmodium falciparum [2]; Plasmodium falciparum) [µM] | EC50 (Plasmodium falciparum [3]) [µM] | EC50 (Plasmodium falciparum [2]) [µM] | SMILES
1 | 0.125 | 0.09 |  |  | CCN(CC)CCCNc1ccnc2ccc(C(F)(F)F)cc12
2 | 0.27 | 0.032 |  |  | CCN(CC)CCCC(C)Nc1ccnc2cc(Cl)c(C)cc12 (stereo unspecified)
3 | 0.071 | 0.034 |  |  | CCN(CC)CCCNc1ccnc2cc(Oc3ccccc3)ccc12
4 |  | 0.062 |  |  | CCN(CC)CCCC(C)Nc1ccnc2ccc(OC(F)(F)F)cc12 (stereo unspecified)
5 | 0.102 | 0.082 |  |  | CCN(CC)CCCNc1ccnc2ccc(OC(F)(F)F)cc12
6 |  |  | 0.032 | 0.008 | CCN(CC)CCCC(C)Nc1c2ccc(Cl)cc2nc2ccc(OC)cc12 (stereo in doubt; form 2) [QUINACRINE]
7 | 0.29 | 0.051 |  |  | CCN(CC)CCCC(C)Nc1ccnc2ccc(C(F)(F)F)cc12 (stereo unspecified)
8 | 0.062 | 0.033 |  |  | CCN(CC)CCCNc1ccnc2cc(C(F)(F)F)ccc12
9 |  | 0.005 | 0.008 |  | CCN(CC)CCCC(C)Nc1c2ccc(Cl)cc2nc2ccc(OC)cc12 (stereo in doubt; form 1) [QUINACRINE]
10 | 0.05 | 0.009 |  |  | CCN(CC)CCCNc1ccnc2cc(Cl)c(C)cc12
11 | 0.023 | 0.002 |  |  | CCN(CC)CCCNc1ccnc2cc(Cl)ccc12
